Data: PubChem BioAssay (NCI)
Several values for one entry are separate records, joined by “and”; a condition that tells them apart may be missing. Equal entries are not always repeated.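 Values below derive from 48-hour exposures of cells grown in 96-well plates, with endpoints linearly interpolated between the two concentrations bracketing the appropriate inhibition level. Here, GI50 denotes the concentration required for 50% inhibition of growth. At the TGI there is no net growth.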

Experiments:
Assay in all cases: NCI tumour cell line growth inhibition, 48 h
[1] = test system: CCRF-CEM leukemia
[2] = test system: HCC-2998 colon
[3] = test system: HCT-15 colon
[4] = test system: MCF7 breast
[5] = test system: NCI/ADR-RES ovarian
[6] = test system: RXF 393 renal
[7] = test system: SK-MEL-2 melanoma
[8] = test system: SK-MEL-28 melanoma
[9] = test system: SW-620 colon
[10] = test system: U251 CNS

## N#Cc1ccc(C2C3=C(CCCC3=O)OC3=C2C(=O)c2ccccc2C3=O)cc1 (stereo unspecified)
[1]
  GI50: 0.951 µM
  TGI: > 100 µM
[2]
  GI50: 3 µM
  TGI: 8.38 µM
[3]
  GI50: 1.6 µM
  TGI: 3.71 µM
[4]
  GI50: 0.664 µM
  TGI: 2.65 µM
[5]
  GI50: 0.899 µM
  TGI: 7.81 µM
[6]
  GI50: 1.86 µM
  TGI: 3.59 µM
[7]
  GI50: 1.35 µM
  TGI: 3.33 µM
[8]
  GI50: 1.82 µM
  TGI: 3.3 µM
[9]
  GI50: 2.21 µM
  TGI: 5.69 µM
[10]
  GI50: 1.7 µM
  TGI: 3.16 µM

## O=C(/C=C/c1cccc([N+](=O)[O-])c1)c1ccc(O)c(CN2CCN(c3cc4c(cc3F)c(=O)c(C(=O)O)cn4C3CC3)CC2)c1
[1]
  GI50: 1.6 µM
  TGI: 10.8 µM
[2]
  GI50: 1.92 µM
  TGI: 3.43 µM
[4]
  GI50: 0.332 µM
  TGI: 1.44 µM
[5]
  GI50: 2.85 µM
  TGI: 9.34 µM
[6]
  GI50: 1.51 µM
  TGI: 2.99 µM
[7]
  GI50: 2.35 µM
  TGI: 5.17 µM
[8]
  GI50: 1.75 µM
  TGI: 3.2 µM
[9]
  GI50: 1.1 µM
  TGI: 3.65 µM
[10]
  GI50: 1.17 µM
  TGI: 2.62 µM

## CCOC(=O)NC1=C(N2CC2)C(=O)C(NC(=O)OCC)=C(N2CC2)C1=O
[1]
  GI50: 3.47 µM and 1.88 µM
  TGI: 9.8 µM and 16.1 µM and 12.1 µM
[2]
  GI50: 20 µM and 10.3 µM
  TGI: 25 µM and 23.2 µM and 35 µM
[3]
  GI50: 11.4 µM and 10.2 µM
  TGI: 25 µM and 42.9 µM and 44.2 µM
[4]
  GI50: 6.33 µM
  TGI: 25 µM and 21.3 µM
[5]
  GI50: 8.44 µM
  TGI: 25 µM and 16.8 µM
[6]
  GI50: 13 µM and 5.74 µM
  TGI: 25 µM and 14.4 µM and 12.9 µM
[7]
  GI50: 5.09 µM and 7.71 µM
  TGI: 15.2 µM and 14.4 µM and 16.1 µM
[8]
  GI50: 22.3 µM and 16.6 µM
  TGI: 25 µM and 42.4 µM and 54.4 µM
[9]
  GI50: 5.99 µM and 5.69 µM
  TGI: 24.6 µM and 26.1 µM and 19.2 µM
[10]
  GI50: 3.91 µM
  TGI: 20 µM and 10.8 µM and 9.77 µM

## COc1ccc(-c2nn(-c3cccc(Cl)c3)cc2-c2c(C#N)c(=O)n3[nH]c(-c4ccc(C)cc4)nc3c2C#N)cc1
[1]
  GI50: 1.23 µM
  TGI: > 50 µM
[2]
  GI50: 5.04 µM
  TGI: 10.8 µM
[3]
  GI50: 9.95 µM
  TGI: > 50 µM
[4]
  GI50: 3.22 µM
  TGI: 11.4 µM
[5]
  GI50: 9.43 µM
  TGI: 37.5 µM
[6]
  GI50: 0.858 µM
  TGI: 2.48 µM
[7]
  GI50: 1.41 µM
  TGI: 4.02 µM
[8]
  GI50: 6.55 µM
  TGI: 13.2 µM
[9]
  GI50: 0.521 µM
  TGI: 2.73 µM
[10]
  GI50: 0.797 µM
  TGI: 1.59 µM

## Cc1cc([N+](=O)[O-])ccc1NS(=O)(=O)c1cc(Cl)ccc1Cl
[1]
  GI50: 3.47 µM
  TGI: > 72.4 µM
[2]
  GI50: 4.28 µM
  TGI: 18 µM
[3]
  GI50: 2.92 µM
  TGI: 13.1 µM
[4]
  GI50: 2.51 µM
  TGI: > 49.4 µM
[5]
  GI50: 3.07 µM
  TGI: 17.5 µM
[6]
  GI50: 2.98 µM
  TGI: 18.5 µM
[7]
  GI50: 2.67 µM
  TGI: 8.56 µM
[8]
  GI50: 5.17 µM
  TGI: > 94.6 µM
[9]
  GI50: 4.36 µM
  TGI: > 100 µM
[10]
  GI50: 2.9 µM
  TGI: 17.4 µM

## O=c1oc(-c2ccccc2)cc2cccc(O)c12
[1]
  GI50: > 100 µM
  TGI: > 100 µM
[3]
  GI50: 19.6 µM
  TGI: > 100 µM
[4]
  GI50: > 28 µM
  TGI: > 100 µM
[5]
  GI50: 33.3 µM
  TGI: > 74.3 µM
[6]
  GI50: 24.8 µM
  TGI: > 70.9 µM
[7]
  GI50: > 100 µM
  TGI: > 100 µM
[8]
  GI50: > 100 µM
  TGI: > 100 µM
[9]
  GI50: 58 µM
  TGI: > 100 µM
[10]
  GI50: 18 µM
  TGI: 35.1 µM

## CCn1c2ccc(C(=O)CCCN(C)C)cc2c2cc(C(=O)CCCN(C)C)ccc21
[1]
  TGI: 10.1 µM
[2]
  TGI: 6.05 µM
[3]
  TGI: 8.92 µM
[4]
  TGI: 13.1 µM
[5]
  TGI: 21.9 µM
[6]
  TGI: 4.3 µM
[7]
  TGI: 3.97 µM
[8]
  TGI: 18.3 µM
[9]
  TGI: 3.76 µM
[10]
  TGI: 8.46 µM
